27 compounds from patent US8563552B2, “Whitening agent and skin external preparation” (Shiseido Company Ltd., priority 2008, dated 2013) can be followed below.

In the first assay the test system is Mouse B16 melanoma cells. Nature of the assay: Melanin production inhibition test. The assay is classed as cell-based. The settings on record: 72 h; mouse B16 melanoma cells, three days after addition; minimum non-cytotoxic final concentration at which ratio of melanin amount was 80% or less; read-out: Inhibitory effect on melanin production. The method, then:
A test for melanin production inhibition by the compounds of the formula (1) was conducted. The test method is as follows.
Melanin Production Inhibition Test
(1) Inoculation of Cells and Addition of Test Substances
Mouse B16 melanoma cells were inoculated in a six well plate at 100,000 cells/well. The next day, test substance solutions (solvent: DMSO) were added.
(2) Cell Proliferation Test
Three days after the addition of the test substance solution, the medium was removed by aspiration. Then 1 ml of EMEM medium containing 10% Alamar Blue solution was added, and a reaction was allowed to proceed at 37° C. After 30 minutes, 100 μL of the reaction mixture was transferred to a 96 well plate and fluorescence was measured at an excitation wavelength of 544 nm and a measurement wavelength of 590 nm. Using the value thus measured as a relative value of cell count, a ratio of the cell count (% cell count) of the test substance-added group to the test substance-absent group (group in which only the solvent was added) was calculated. The higher the % cell count, the lower the cytotoxicity. It was determined that a compound having the % cell count of 80% or more was non-cytotoxic, and that a compound having the % cell count of less than 80% was cytotoxic.
(3) Quantification of Melanin
The cells after the cell proliferation test were washed with PBS three times, and then lysed by addition of 200 μL of 1M NaOH to measure an absorbance at 475 nm. Using the value thus measured as a: value of the melanin amount, a ratio of the melanin amount (%) of the test substance-added group to the test substance-absent group (group in which only the solvent was added) was calculated. The lower the ratio of the melanin amount, the higher the melanin production-inhibitory effect. […] The inhibitory effect on melanin production was evaluated according to the following criteria.
⊚: the minimum concentration for inhibition of melanin production was 1 ppm or less.
◯: the minimum concentration for inhibition of melanin production was more than 1 ppm and 10 ppm or less.
As to `Cc1cc(C)nc(-n2nc(C)cc2N)n1` [Compound 1], the minimal effective concentration was at most 1 µg/mL.
`Cc1cc(N2CCOCC2)nc(-n2nc(C)cc2C)n1` [Compound 2]: the minimal effective concentration was at most 1 µg/mL.
Same read-out and setting: for `Cc1cc(N)n(-c2ncccn2)n1` [Compound 3] the value was 1 to 10 µg/mL.
Same read-out and setting: next, `Cc1cc(C)n(-c2ncccn2)n1` [Compound 4, 1-(pyrimidin-2-yl)-3,5-dimethylpyrazole]: at most 1 µg/mL.
On the same count and under the same terms, for `Cc1cc(S)nc(-n2nc(C)cc2C)n1` [Compound 6] the value was at most 1 µg/mL.
For `CNc1cc(C)nc(-n2nc(C)cc2C)n1` [Compound 7], the minimal effective concentration was at most 1 µg/mL.
Still for that read-out and setting: next, `CCc1c(C)nn(-c2nc(C)cc(C)n2)c1O` [Compound 8]: at most 1 µg/mL; `Cc1cc(C)nc(-n2nc(C)cc2O)n1` [Compound 11]: 1 to 10 µg/mL; `Cc1cc(C)nc(-n2cccn2)n1` [Compound 12, 2-(pyrazol-1-yl)-4,6-dimethylpyrimidine]: 1 to 10 µg/mL.
Consider `COc1cc(OC)nc(-n2nc(C)cc2C)n1` [Compound 13], for which the minimal effective concentration is at most 1 µg/mL.
Still for that read-out and setting: for `Cc1cc(N(C)C)nc(-n2nc(C)cc2C)n1` [Compound 14] the value was at most 1 µg/mL; for `Cc1cc(C)nc(-n2nccc2C)n1` [Compound 17], at most 1 µg/mL; for `Cc1cc(C)nc(-n2ccc(C)n2)n1` [Compound 18], at most 1 µg/mL.
Same read-out and setting: next, `Cc1cc(N2CCOCC2)nc(-n2nc(C)c(C)c2C)n1` [Compound 20]: at most 1 µg/mL.
Still for that read-out and setting: for `CCc1cnc(-n2nc(C)cc2C)nc1` [Compound 21, 1-(5-ethylpyrimidin-2-yl)-3,5-dimethylpyrazole] the value was at most 1 µg/mL; for `Cc1ccnc(-n2nc(C)cc2C)n1` [Compound 22, 1-(4-methylpyrimidin-2-yl)-3,5-dimethylpyrazole], at most 1 µg/mL; for `Cc1cnn(-c2nc(C)cc(C)n2)c1` [Compound 23], at most 1 µg/mL.
With `Cc1cc(C)nc(-n2ncc3c2/C(=C/c2ccc(Cl)cc2)CC3)n1` [Compound 30], the minimal effective concentration was at most 1 µg/mL.
Same read-out and setting: next, `Cc1cc(C)n(-c2ccccc2)n1` [Compound 33, 1-phenyl-3,5-dimethylpyrazole]: 1 to 10 µg/mL.
Same read-out and setting: next, `Cc1cc(C)n(-c2ccc(C)c(C)c2)n1` [Compound 34]: at most 1 µg/mL; `Cc1cc(C)cc(-n2nc(C)cc2C)c1` [Compound 35]: at most 1 µg/mL.
On the same count and under the same terms, next, `Cc1cccc(-n2nc(C)cc2C)c1` [Compound 36]: at most 1 µg/mL.
As to `Cc1ccnc(-n2nc(C)cc2C)c1` [Compound 40, 1-(4-methylpyridin-2-yl)-3,5-dimethylpyrazole], the minimal effective concentration lay in the range of 1 to 10 µg/mL.
Same read-out and setting: next, `Cc1cc(C)nc(-n2ccnc2C)n1` [Compound 41]: at most 1 µg/mL; `Cc1cn(-c2nc(C)cc(C)n2)cn1` [Compound 42]: at most 1 µg/mL.
Same read-out and setting: for `Cc1cc(C)nc(N2CC(C)CC(C)C2)n1` (centres unmarked) [Compound 45, N-(4,6-dimethylpyrimidin-2-yl)-3,5-dimethylpiperidine] the value was 1 to 10 µg/mL.

The same assay, now with this note: minimum concentration at which an inhibitory effect on melanin production was significantly exhibited in melanoma B16 cells.
Consider `OC[C@H]1O[C@@H](Oc2ccc(O)cc2)[C@H](O)[C@@H](O)[C@@H]1O` [Arbutin, 4-hydroxyphenyl-β-D-glucopyranoside, reference compound], for which the “Minimum concentration (%)” value is given as 5 × 10^−4%.
The same measure, in the same setting: next, `CNc1cc(C)nc(-n2nc(C)cc2C)n1` [Compound 7]: 3 × 10^−6%; `Cc1cc(N(C)C)nc(-n2nc(C)cc2C)n1` [Compound 14]: 3 × 10^−6%.
